Four compounds from patent publication US11505553B2, “2-(Het)aryl-substituted fused heterocycle derivatives as pesticides” (Bayer Aktiengesellschaft, priority 2017, dated 2022) can be followed below.

Common to all, as to assay type: in vivo
One assay concerns Lucilia cuprina. Kind of assay: Lucilia cuprina test. To be noted: 48 h, application rate 100 ppm, L1 larvae, after 2 days, read-out: efficacy (kill). On the procedure: Solvent: dimethyl sulfoxide To produce a suitable active ingredient formulation, 10 mg of active ingredient are mixed with 0.5 ml of dimethyl sulfoxide, and the concentrate is diluted with water to the desired concentration. About 20 L1 larvae of the Australian sheep blowfly (Lucilia cuprina) are transferred into a test vessel containing minced horsemeat and the active ingredient formulation of the desired concentration. After 2 days, the kill in % is determined. 100% means that all the larvae have been killed; 0% means that no larvae have been killed.

The subject of assay [1] is Myzus persicae. As to the kind of experiment: Myzus persicae spray test. To be noted: foliar, 120 h, Chinese cabbage leaf discs, after 5 days, read-out: efficacy; for pest or weed control at 20 g/ha: application rate 20 g/ha; for pest or weed control at 100 g/ha: application rate 100 g/ha. The method, then: (§1) Solvent: 78 parts by weight of acetone • • 1.5 parts by weight of dimethylformamide Emulsifier: alkylaryl polyglycol ether To produce a suitable active ingredient formulation, 1 part by weight of active ingredient is dissolved with the specified parts by weight of solvent and made up to the desired concentration with water containing an emulsifier concentration of 1000 ppm. To produce further test concentrations, the formulation is diluted with emulsifier-containing water. Discs of Chinese cabbage leaves (Brassica pekinensis) infested by all stages of the green peach aphid (Myzus persicae) are sprayed with an active ingredient formulation of the desired concentration. After 5 days, the efficacy in % is determined. 100% means that all the aphids have been killed; 0% means that no aphids have been killed.

For assay [2], the system named is Ctenocephalides felis. As to the kind of experiment: Ctenocephalides felis in vitro contact test with adult cat fleas. To be noted: application rate 5 μg/cm^2 (=500 g/ha), after 48 h, adult cat fleas dead or moribund, read-out: efficacy. The method, then: For the coating of the test tubes, 9 mg of active ingredient are first dissolved in 1 ml of acetone p.a. and then diluted to the desired concentration with acetone p.a. 250 μl of the solution are distributed homogeneously on the inner walls and the base of a 25 ml glass tube by turning and rocking on an orbital shaker (rocking rotation at 30 rpm for 2 h). With 900 ppm of active ingredient solution and internal surface area 44.7 cm^2, given homogeneous distribution, an area-based dose of 5 μg/cm^2 is achieved. After the solvent has evaporated off, the tubes are populated with 5-10 adult cat fleas (Ctenocephalides felis), sealed with a perforated plastic lid and incubated in a horizontal position at room temperature and ambient humidity. After 48 h, efficacy is determined. To this end, the tubes are stood upright and the fleas are knocked to the base of the tube. Fleas which remain motionless at the base or move in an uncoordinated manner are considered to be dead or moribund. […] 100% efficacy means that all the fleas were dead or moribund. 0% efficacy means that no fleas were harmed.

For assay [3], the system named is Myzus persicae. Kind of assay: Myzus persicae oral test. To be noted: 120 h, after 5 days, read-out: efficacy; for pest or weed control at 0.8 ppm: application rate 0.8 ppm; for pest or weed control at 4 ppm: application rate 4 ppm. On the procedure:
Solvent: 100 parts by weight of acetone To produce a suitable active ingredient formulation, 1 part by weight of active ingredient is dissolved with the stated parts by weight of solvent and made up to the desired concentration with water. 50 μl of the active ingredient preparation are transferred into microtitre plates and made up to a final volume of 200 μl with 150 μl of IPL41 insect medium (33%+15% sugar). Subsequently, the plates are sealed with parafilm, which a mixed population of green peach aphids (Myzus persicae) within a second microtitre plate is able to puncture and imbibe the solution. After 5 days, the efficacy in % is determined. 100% means that all the aphids have been killed; 0% means that no aphids have been killed.

Assay [4] relates to Phaedon cochleariae. Kind of assay: Phaedon cochleariae spray test. To be noted: 168 h, application rate 100 g/ha, larvae, after 7 days, read-out: efficacy. On the procedure: as §1, with “Solvent: 78.0” for “Solvent: 78”, “pekinensis)” for “pekinensis) infested by all stages of the green peach aphid (Myzus persicae)”, “desired concentration and, after drying, populated with larvae of the mustard beetle (Phaedon cochleariae).” for “desired concentration.”, “After 7” for “After 5”, “the beetle larvae” for “the aphids”, “no beetle larvae” for “no aphids”

Assay [5] deals with Ctenocephalides felis. As to the kind of experiment: Ctenocephalides felis oral test. Particulars: 48 h, application rate 100 ppm in citrated cattle blood, after 2 days, read-out: efficacy (kill). The method, then: Solvent: dimethyl sulfoxide To produce a suitable active ingredient formulation, 10 mg of active ingredient are mixed with 0.5 ml of dimethyl sulfoxide. Dilution with citrated cattle blood gives the desired concentration. About 20 unfed adult cat fleas (Ctenocephalides felis) are placed into a chamber which is closed at the top and bottom with gauze. A metal cylinder whose bottom end is closed with parafilm is placed onto the chamber. The cylinder contains the blood/active ingredient formulation, which can be imbibed by the fleas through the parafilm membrane. After 2 days, the kill in % is determined. 100% means that all of the fleas have been killed; 0% means that none of the fleas have been killed.

In the next assay the test system is Nilaparvata lugens. Kind of assay: Nilaparvata lugens spray test (NILALU). Particulars: 96 h, 4 dat, read-out: % efficacy. On the procedure:
Solvent: 52.5 parts by weight of acetone • 7 parts by weight of dimethylformamide
Emulsifier: alkylaryl polyglycol ether
To produce an appropriate active ingredient formulation, 1 part by weight of active ingredient is dissolved with the stated parts by weight of solvent and made up with water containing an emulsifier concentration of 1000 ppm until the desired concentration is attained. For production of further test concentrations, the mixture is diluted with emulsifier-containing water. If addition of ammonium salts or/and penetrants is required, these are each added to the preparation solution in a concentration of 1000 ppm.
Rice plants (Oryza sativa) are sprayed with an active ingredient formulation of the desired concentration and then populated with larvae of the rice cicada (Nilaparvata lugens).
After the desired time, the efficacy in % is determined. 100% means that all rice cicadas have been killed; 0% means that no rice cicadas have been killed.

The next assay concerns Meloidogyne incognita. As to the kind of experiment: Meloidogyne incognita test. To be noted: 336 h, application rate 20 ppm, formation of galls on lettuce after 14 days, read-out: nematicidal efficacy. The method, then:
Solvent: 125.0 parts by weight of acetone To produce a suitable active ingredient formulation, 1 part by weight of active ingredient is mixed with the stated amount of solvent and the concentrate is diluted to the desired concentration with water. Vessels are filled with sand, active ingredient solution, an egg/larvae suspension of the southern root-knot nematode (Meloidogyne incognita) and lettuce seeds. The lettuce seeds germinate and the plants develop. The galls develop on the roots. After 14 days, the nematicidal efficacy in % is determined by the formation of galls. 100% means that no galls were found; 0% means that the number of galls on the treated plants corresponds to the untreated control.

Assay [6] concerns Myzus persicae. Kind of assay: Myzus persicae spray test (MYZUPE S), bell pepper plants. To be noted: 144 h, 6 dat, read-out: % efficacy. On the procedure: Solvent: 14 parts by weight of dimethylformamide Emulsifier: alkylaryl polyglycol ether To produce an appropriate active ingredient formulation, 1 part by weight of active ingredient is dissolved with the stated parts by weight of solvent and made up with water containing an emulsifier concentration of 1000 ppm until the desired concentration is attained. For production of further test concentrations, the mixture is diluted with emulsifier-containing water. If addition of ammonium salts or/and penetrants is required, these are each added to the preparation solution in a concentration of 1000 ppm. Bell pepper plants (Capsicum annuum) severely infested by the green peach aphid (Myzus persicae) are treated by spraying with the active ingredient formulation in the desired concentration. After the desired time, the kill in % is determined. 100% means that all animals have been killed; 0% means that no animals have been killed.

The next assay concerns Boophilus microplus. As to the kind of experiment: Boophilus microplus injection test. To be noted: application rate 20 μg/animal, laying of fertile eggs assessed after 7 days. On the procedure: Solvent: dimethyl sulfoxide To produce a suitable active ingredient formulation, 10 mg of active ingredient are mixed with 0.5 ml of solvent and the concentrate is diluted to the desired concentration with solvent. 1 μl of the active ingredient solution is injected into the abdomen of 5 engorged adult female cattle ticks (Boophilus microplus). The animals are transferred into dishes and kept in a climate-controlled room. Efficacy is assessed after 7 days by laying of fertile eggs. Eggs which are not visibly fertile are stored in a climate-controlled cabinet until the larvae hatch after about 42 days. An efficacy of 100% means that none of the ticks has laid any fertile eggs; 0% means that all the eggs are fertile.

In assay [7] the test system is Phaedon cochleariae. Kind of assay: Phaedon cochleariae spray test (PHAECO), contrastive examples. Particulars: 168 h, 7 dat, read-out: % efficacy. The method, then: Solvent: 78.0 parts by weight of acetone • • 1.5 parts by weight of dimethylformamide Emulsifier: alkylaryl polyglycol ether To produce an appropriate active ingredient formulation, 1 part by weight of active ingredient is dissolved with the stated parts by weight of solvent and made up with water containing an emulsifier concentration of 1000 ppm until the desired concentration is attained. For production of further test concentrations, the mixture is diluted with emulsifier-containing water. Discs of chinese cabbage leaves (Brassica pekinensis) are sprayed with an active ingredient formulation of the desired concentration and, after drying, populated with larvae of the mustard beetle (Phaedon cochleariae). After the desired time, the efficacy in % is determined. 100% means that all beetle larvae have been killed; 0% means that no beetle larvae have been killed.

The subject of assay [8] is Myzus persicae. As to the kind of experiment: Myzus persicae spray test (MYZUPE), contrastive examples. Particulars: 120 h, 5 dat, read-out: % efficacy. The method, then: as §1, with “78.0” for “78”, “chinese” for “Chinese”, “the desired time,” for “5 days,”, “all” for “all the”

With `CCS(=O)(=O)c1ccc(N(C)C(=O)NC)nc1-c1nc2cc(C(F)(F)F)nnc2n1C` [Example I-3], in the assay on Lucilia cuprina, the pest or weed control at 100 ppm was found to be 90%. In addition, the pest or weed control at 20 g/ha in the assay on Myzus persicae [1] is 100%. In the assay with Ctenocephalides felis [2], the pest or weed control at 5 µg/cm2, 500 g/ha came to 100%. For the same compound, in the assay with Myzus persicae [3], the pest or weed control at 0.8 ppm was found to be 100% and the pest or weed control at 4 ppm was found to be 100%. For the same compound, in the assay on Phaedon cochleariae [4], the pest or weed control at 100 g/ha was found to be 100%. Further, in the assay on Ctenocephalides felis [5], the pest or weed control at 100 ppm came out at 100%. The Emax at 4 g/ha with Nilaparvata lugens came out at 70%. The pest or weed control at 20 ppm in the assay with Meloidogyne incognita was determined as 100%.

`CNC(=O)N(C)c1ccc(S(C)(=O)=O)c(-c2nc3cc(C(F)(F)F)nnc3n2C)n1` [Example I-6]: the pest or weed control at 100 g/ha with Myzus persicae [1] came out at 90%. In the assay on Myzus persicae [6], the Emax at 0.8 ppm is 85%. In addition, in the assay on Myzus persicae [3], the pest or weed control at 0.8 ppm was found to be 100% and the pest or weed control at 4 ppm came out at 100%. Moreover, the pest or weed control at 100 ppm in the assay with Ctenocephalides felis [5] worked out at 100%. The efficacy in the assay with Boophilus microplus worked out at 80%.

`CCS(=O)(=O)c1ccc(NC(=O)N(C)C)nc1-c1nc2cc(C(F)(F)F)nnc2n1C` [Example I-2]: the pest or weed control at 100 ppm with Lucilia cuprina stood at 100%. In addition, in the assay on Myzus persicae [1], the pest or weed control at 20 g/ha is 100% and the pest or weed control at 100 g/ha amounted to 90%. Moreover, the Emax at 0.8 ppm in the assay with Myzus persicae [6] is 90%. In addition, in the assay with Ctenocephalides felis [2], the pest or weed control at 5 µg/cm2, 500 g/ha is 100%. For the same compound, in the assay with Myzus persicae [3], the pest or weed control at 0.8 ppm is 100% and the pest or weed control at 4 ppm was 100%. Also, in the assay on Phaedon cochleariae [7], the Emax at 20 g/ha stood at 83% and the Emax at 100 g/ha stood at 100%. The pest or weed control at 100 g/ha in the assay on Phaedon cochleariae [4] was determined as 100%. For the same compound, the pest or weed control at 100 ppm in the assay with Ctenocephalides felis [5] amounted to 100%. Further, in the assay on Meloidogyne incognita, the pest or weed control at 20 ppm turned out to be 100%.

In the case of `CCS(=O)(=O)c1ccc(NC(=O)NC)nc1-c1nc2cc(C(F)(F)F)nnc2n1C` [Example I-1, 1-{5-(ethylsulfonyl)-6-[7-methyl-3-(trifluoromethyl)-7H-imidazo[4,5-c]pyridazin-6-yl]pyridin-2-yl}-3-methylurea], the pest or weed control at 100 ppm with Lucilia cuprina came to 100%. For the same compound, in the assay on Myzus persicae [1], the pest or weed control at 20 g/ha was 90% and the pest or weed control at 100 g/ha is 100%. For the same compound, the Emax at 0.8 ppm in the assay on Myzus persicae [6] came out at 70%. In addition, the pest or weed control at 5 µg/cm2, 500 g/ha with Ctenocephalides felis [2] came out at 100%. For the same compound, in the assay on Myzus persicae [3], the pest or weed control at 0.8 ppm was determined as 90% and the pest or weed control at 4 ppm was found to be 100%. Moreover, the Emax at 4 g/ha with Phaedon cochleariae [7] (4 g/ha) was determined as 67%. In addition, in the assay on Phaedon cochleariae [7], the Emax at 20 g/ha amounted to 83% and the Emax at 100 g/ha came to 100%. The pest or weed control at 100 g/ha in the assay with Phaedon cochleariae [4] came out at 100%. In addition, the pest or weed control at 100 ppm in the assay with Ctenocephalides felis [5] was 100%. In the assay on Myzus persicae [8], the Emax at 4 g/ha came to 90%. The pest or weed control at 20 ppm in the assay with Meloidogyne incognita stood at 100%.
